Where “and” joins values, the source holds several entries; their conditions need not be identical. Equal values may be shown once.
Tests used:
[1] = molar enthalpy of vaporization or sublimation; conditions: Crystal, Clausius-Clapeyron equation and measured Psat
[2] = Crystal, Calculated from knudsen effusion weight loss

Nc1cccc2cccc(N)c12 [1,8-diaminonaphthalene]
Conditions	molar enthalpy [kcal/mol]	vapor or sublimation pressure
[1], 326.09 K	23.3	–
[2], 314.1 K	–	4.71e-05 kPa and 4.91e-05 kPa and 4.81e-05 kPa
[2], 316.18 K	–	6.84e-05 kPa and 6.65e-05 kPa and 6.32e-05 kPa
[2], 318.18 K	–	8.3e-05 kPa and 7.89e-05 kPa and 8.02e-05 kPa
[2], 320.09 K	–	0.000102 kPa and 9.96e-05 kPa
[2], 322.13 K	–	0.000135 kPa and 0.000127 kPa and 0.000126 kPa
[2], 324.19 K	–	0.000165 kPa and 0.000155 kPa and 0.000159 kPa
[2], 326.12 K	–	0.000197 kPa and 0.000204 kPa and 0.000181 kPa
[2], 328.19 K	–	0.000261 kPa and 0.000251 kPa and 0.000244 kPa
[2], 330.17 K	–	0.000315 kPa and 0.000298 kPa and 0.000296 kPa
[2], 332.07 K	–	0.000351 kPa and 0.000379 kPa and 0.000364 kPa
[2], 334.12 K	–	0.000485 kPa and 0.000472 kPa and 0.000466 kPa
[2], 336.19 K	–	0.000583 kPa and 0.00056 kPa and 0.000585 kPa
[2], 338.08 K	–	0.000707 kPa and 0.000739 kPa and 0.000734 kPa

Nc1cccc2c(N)cccc12 [1,5-diaminonaphthalene]
Conditions	molar enthalpy [kcal/mol]	vapor or sublimation pressure
[1], 378.11 K	28.3	–
[2], 367.07 K	–	0.000122 kPa and 0.000123 kPa and 0.000125 kPa
[2], 369.1 K	–	0.00015 kPa and 0.000153 kPa and 0.000149 kPa
[2], 371.16 K	–	0.000193 kPa and 0.00019 kPa and 0.000182 kPa
[2], 373.08 K	–	0.000243 kPa and 0.000229 kPa and 0.000246 kPa
[2], 375.1 K	–	0.000311 kPa and 0.000289 kPa and 0.000286 kPa
[2], 377.16 K	–	0.000365 kPa and 0.000344 kPa and 0.000338 kPa
[2], 379.09 K	–	0.000432 kPa and 0.000427 kPa and 0.000417 kPa
[2], 381.1 K	–	0.000535 kPa and 0.000522 kPa and 0.000502 kPa
[2], 383.16 K	–	0.00064 kPa and 0.000622 kPa and 0.000603 kPa
[2], 385.08 K	–	0.000758 kPa and 0.000781 kPa and 0.000757 kPa
[2], 387.09 K	–	0.000967 kPa and 0.00093 kPa and 0.000909 kPa
[2], 389.16 K	–	0.001163 kPa and 0.001096 kPa and 0.001063 kPa

From the NIST ThermoML archive (doi:10.1016/j.jct.2009.09.009)
